Test results published in patent US9175305B2, “Mutant hydroxyphenylpyruvate dioxygenase polypeptides and methods of use” (Syngenta Participations AG, priority 2009, dated 2015).
“And” between values parts separate entries of the source, which are not always exact repeats. Equal entries are not always repeated.

Tests used:
[1] = test system: Jack w/t; test: herbicide spray test on soybean; assay type: in vivo; conditions: V2 growth stage, 14 DAT, average of n=7
Protocol: (§1) Each data point represents the average damage score from n=7 replicates.
(§2) Plants were in 4×4×4 inch plastic pots and grown under a 15/9 hour light regime (daylight supplemented by artificial light in greenhouses) at a minimum night-time temperature of 18° C. and maximum daytime temperature of 27° C. Soil was regular VBRC mix (1:1 mixture of Vero field soil and Fafard Mix II) where Vero field soil is 98% sand and 2% clay. […] Spray volume was 150 L/ha and the damage scores reflect assessments at 14 DAT.

[2] = target: HPPD SEQ ID NO:14 (Avena sativa, UniProt A0ACD5V6K6, DEL109-109); test: biochemical; assay type: binding
Protocol: (§3) On rates (governed by an association rate constant, kon) for the formation of the enzyme: inhibitor complexes, EI and off rates (governed by a dissociation rate constant, koff) were determined by methods known in the art and essentially as described in Hawkes et al. (2001) Proc. Bright. Crop. Prot. Conf. Weeds, 2:563-568 and in PCT Patent App. Pub. No. WO 02/46387).
(§4) For example, on rates were measured by, at zero time, adding ˜60 pmoles HPPD to 50 mM BisTrisPropane buffer at pH7.0 and at 25° C. containing 25 mM Na ascorbate, 4 μg/ml bovine catalase (Sigma, St. Louis, Mo.) and an excess (˜300 pmoles) of ^14C inhibitor in a total assay volume of 425 μl and, at various time points (0-180 s), quenching the radiolabel binding reaction by addition and rapid mixing of 100 μl ‘cold’ 1 mM structure A. Protein samples quenched at different times were then exchanged into 50 mM BisTrisPropane buffer at pH 7.0 containing 0.1M KCl by rapid chromatography down a NAP5 G25 Sephadex column (GE Healthcare Ltd, Buckinghamshire UK) and the amount of ^14C bound to protein fractions quantified in Optiphase scintillant using a Tri-Carb 2900TR scintillation counter (Perkin Elmer, Wellesley, Mass.). The data were fit according to the scheme below in order to derive the value of the apparent second order rate constant, k2, governing the association rate of enzyme and radiolabelled inhibitor. A range of enzyme and inhibitor concentrations were used. […] Further example methods are described in PCT Patent App. Pub. No. WO 02/46387.
(§5) Off rates (k1 in the scheme below) were derived from exchange rate studies where either the test inhibitor, I, or its exchange partner, J were radiolabelled and the data fit according to the scheme below. As noted in Hawkes et al. (2001) Proc. Bright. Crop. Prot. Conf.
(§6) After 30 minutes the exchange reaction was initiated with addition of 100 μl 1 mM ‘cold’ structure A with thorough mixing, and, immediately, 150 μl were withdrawn and loaded onto a NAP5 column, the protein exchanged into 50 mM BisTrisPropane buffer at pH 7.0 containing 0.1M KCl by rapid (<2 min) chromatography down a NAP5 G25 Sephadex column (GE Healthcare Ltd, Buckinghamshire UK) and the amount of ^14C bound to protein measured by Optiphase scintillant using a Tri-Carb 2900TR scintillation counter (Perkin Elmer, Wellesley, Mass.). Further aliquots were removed and measured in the same way at various times over minutes or hours as required in order to determine the exchange kinetics.
(§7) After 30 minutes the reaction vessel was transferred to ice. After a further 10 minutes at ice temperature the exchange reaction was initiated by addition of 100 μl 1 mM Structure A, with thorough mixing, and 150 μl was withdrawn and loaded onto a NAP5 column in a cold room at ˜5-8° C. in order to quantify the amount of radiolabel remaining bound to the protein at various time from the start of exchange at ice temperature.
(§8) Off rates (k1) of HPPD inhibitors that are not available radiolabelled or that present other measurement problems (for example high levels of background non-specific protein-binding which can be measured as radiolabel binding that persists in the presence of high concentrations of ‘cold’ inhibitor) may be measured indirectly. […] Exemplary methods are also described in PCT Patent App. Pub. No. WO 02/46387.

[3] = target: HPPD SEQ ID NO:24 (Avena sativa, UniProt A0ACD5V6K6, DEL109-109/L359M); test: biochemical; assay type: binding; conditions: relative to SEQ ID NO:14
Protocol: as §3, §4, §5, §6, §7, §8

[4] = test system: soybean event 1 (vector 15764) expressing SEQ ID NO:14; test: herbicide spray test on soybean events; assay type: in vivo; conditions: event 1/SEQ#14, V2 growth stage, 14 DAT, average of n=7
Description: as §1
(§9) These events were used to compare the performance of five 17147 events. Four of these, SF, S8, S7 and S3 had not been preselected for tolerance level (other than to confirm resistance, non-chimerical nature and the presence of the gene) while the remaining event, T0, had been preselected as the most resistant out of five 17147 events in a preliminary field test.
as §2

[5] = test system: soybean event S7 (vector 17147) expressing SEQ ID NO:24; test: herbicide spray test on soybean events; assay type: in vivo; conditions: event S7/SEQ#24, V2 growth stage, 14 DAT, average of n=7
Description: as §1, §9, §2

[6] = test system: soybean event S8 (vector 17147) expressing SEQ ID NO:24; test: herbicide spray test on soybean events; assay type: in vivo; conditions: event S8/SEQ#24, V2 growth stage, 14 DAT, average of n=7
Description: as §1, §9, §2

[7] = test system: soybean event 2 (vector 15764) expressing SEQ ID NO:14; test: herbicide spray test on soybean events; assay type: in vivo; conditions: event 2/SEQ#14, V2 growth stage, 14 DAT, average of n=7
Description: as §1, §9, §2

[8] = test system: soybean event T0 (vector 17147) expressing SEQ ID NO:24; test: herbicide spray test on soybean events; assay type: in vivo; conditions: event T0/SEQ#24, V2 growth stage, 14 DAT, average of n=7
Description: as §1, §9, §2

[9] = test system: soybean event S3 (vector 17147) expressing SEQ ID NO:24; test: herbicide spray test on soybean events; assay type: in vivo; conditions: event S3/SEQ#24, V2 growth stage, 14 DAT, average of n=7
Description: as §1, §9, §2

[10] = test system: soybean event SF (vector 17147) expressing SEQ ID NO:24; test: herbicide spray test on soybean events; assay type: in vivo; conditions: event SF/SEQ#24, V2 growth stage, 14 DAT, average of n=7
Description: as §1, §9, §2

[11] = test system: G408A mutant of HPPD SEQ ID NO:14; test: time course of inhibition of enzyme activity; assay type: biochemical, Avena sativa
[12] = test system: HPPD SEQ ID NO:26; test: biochemical; assay type: binding, Avena sativa; conditions: off rate, FIGS. 4A-4C
Protocol: as §3
For example, on rates were measured by, at zero time, adding ˜60 pmoles HPPD to 50 mM BisTrisPropane buffer at pH7.0 and at 25° C. containing 25 mM Na ascorbate, 4 μg/ml bovine catalase (Sigma, St. Louis, Mo.) and an excess (˜300 pmoles) of ^14C inhibitor in a total assay volume of 425 μl and, at various time points (0-180 s), quenching the radiolabel binding reaction by addition and rapid mixing of 100 μl ‘cold’ 1 mM structure A. Protein samples quenched at different times were then exchanged into 50 mM BisTrisPropane buffer at pH 7.0 containing 0.1M KCl by rapid chromatography down a NAP5 G25 Sephadex column (GE Healthcare Ltd, Buckinghamshire UK) and the amount of ^14C bound to protein fractions quantified in Optiphase scintillant using a Tri-Carb 2900TR scintillation counter (Perkin Elmer, Wellesley, Mass.). The data were fit according to the scheme below in order to derive the value of the apparent second order rate constant, k2, governing the association rate of enzyme and radiolabelled inhibitor. […]

[13] = test system: tobacco plants expressing HPPD SEQ ID NO:24; test: herbicide spray test on transgenic tobacco; assay type: in vivo; conditions: 13 DAT
[14] = test system: tobacco plants expressing HPPD SEQ ID NO:14; test: herbicide spray test on transgenic tobacco; assay type: in vivo; conditions: 13 DAT
[15] = test system: control SEQ ID NO:14 HPPD; test: time course of inhibition of enzyme activity, control enzyme; assay type: biochemical, Avena sativa; conditions: artifact of the method due to fast off rate during the 150 s assay
[16] = test system: E. coli cells expressing mutant G408A; conditions: 25 ppm sulcotrione
Protocol: (§10) Cells were grown from a 10% starting inoculum into 0.5 ml of L-broth containing 50 μg of kanamycin ml^−1 in […] for 48-96 h at 15° C. Typically pyomelanin colour in the medium was read (at 430 nm) after ˜72 h.

[17] = test system: E. coli BL21 cells expressing HPPD SEQ ID NO:24; assay type: cell-based; conditions: 20 ppm sulcotrione (data not shown)
Protocol: as §10

[18] = 300 g/ha, smaller-sized population
[19] = 500 g/ha, larger-sized population

Sequence of HPPD SEQ ID NO:14 (A0ACD5V6K6 entry or part of it DEL109-109): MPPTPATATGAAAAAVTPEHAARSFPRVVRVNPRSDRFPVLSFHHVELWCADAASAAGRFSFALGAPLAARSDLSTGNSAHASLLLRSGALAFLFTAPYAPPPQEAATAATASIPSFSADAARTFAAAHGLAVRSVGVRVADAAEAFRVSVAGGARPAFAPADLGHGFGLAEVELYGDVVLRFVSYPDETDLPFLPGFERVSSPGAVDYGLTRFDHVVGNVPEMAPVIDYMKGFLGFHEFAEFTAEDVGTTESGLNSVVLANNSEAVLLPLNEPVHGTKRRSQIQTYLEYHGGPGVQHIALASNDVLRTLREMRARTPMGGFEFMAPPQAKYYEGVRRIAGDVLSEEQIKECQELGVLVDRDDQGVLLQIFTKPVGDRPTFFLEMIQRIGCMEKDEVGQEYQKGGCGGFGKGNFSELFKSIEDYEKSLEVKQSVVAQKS
Sequence of HPPD SEQ ID NO:24 (A0ACD5V6K6 entry or part of it DEL109-109/L359M): as the sequence (A0ACD5V6K6 entry or part of it DEL109-109) above, with L358M counted along it

## CS(=O)(=O)c1ccc(C(=O)C2C(=O)CCCC2=O)c(Cl)c1COCC(F)(F)F [E, tembotrione]
[1]; E 368 g/ha
  % dam.: 84.3%
[2]
  Kd: 0.321 nM
[2]; 25° C., indirect radiochemical method, average and individual experiments
  Off rate k1: 5.5e-05 s⁻¹ and 2.85e-05 s⁻¹
[2]; HPPD SEQ ID NO:14
  Kd/Km ratio: 0.000059
[2]; read-out: Off rate k1, 25° C., indirect radiochemical method, average and individual experiments
  koff: 4.17e-05 s⁻¹
[2]; read-out: On rate k2
  kon: 130000 M⁻¹ s⁻¹
[3]
  SEQ ID NO:24 superior to SEQ ID NO:14 (in vitro, in particular off rate data): neutral
[4]; E 368 g/ha
  % dam.: 36.4%
[5]; E 368 g/ha
  % dam.: 41.4%
[6]; E 368 g/ha
  % dam.: 80%
[7]; E 368 g/ha
  % dam.: 52.1%
[8]; E 368 g/ha
  % dam.: 39.3%
[9]; E 368 g/ha
  % dam.: 51.4%
[10]; E 368 g/ha
  % dam.: 97.1%

## CS(=O)(=O)c1ccc(C(=O)C2C(=O)CCCC2=O)c([N+](=O)[O-])c1 [Structure B, mesotrione]
[11]; 0.6 μM B, enzyme about 75 nM, incubation up to 260 s, inhibition levelled off
  residual activity: about 35%
[11]; ice temperature
  radiochemically determined off rate compared with control SEQ ID NO:14 HPPD: indistinguishable
[11]; inhibitor at 0.15 or 0.6 μM
  extent of inhibition compared with the control enzyme: to a lesser extent
[12]
  dissociation from HPPD SEQ ID NO:26 compared with HPPD SEQ ID NO:24: about twice as fast
[1]; B 420 g/ha
  % dam.: 82.9%
[1]; B 840 g/ha
  % dam.: 83.6%
[13]; [18]
  plants exhibiting visible herbicide damage (number of plants): 2 of 28
[13]; [19]
  plants exhibiting symptoms of herbicide damage: 10%
  plants exhibiting symptoms of herbicide damage (number of plants): 4 of 38
[14]; [18]
  plants exhibiting visible herbicide damage (number of plants): 4 of 26
[14]; [19]
  plants exhibiting damage: 27%
[4]; B 420 g/ha
  % dam.: 11.4%
[4]; B 840 g/ha
  % dam.: 9.3%
[5]; B 420 g/ha
  % dam.: 10.6%
[5]; B 840 g/ha
  % dam.: 6.9%
[6]; B 420 g/ha
  % dam.: 18.6%
[6]; B 840 g/ha
  % dam.: 19.3%
[7]; B 420 g/ha
  % dam.: 20.7%
[7]; B 840 g/ha
  % dam.: 22.1%
[8]; B 420 g/ha
  % dam.: 8.3%
[8]; B 840 g/ha
  % dam.: 5.3%
[9]; B 420 g/ha
  % dam.: 15.3%
[9]; B 840 g/ha
  % dam.: 15.3%
[10]; B 420 g/ha
  % dam.: 15.7%
[10]; B 840 g/ha
  % dam.: 25%
[15]
  residual activity: ~8%

## CS(=O)(=O)c1ccc(C(=O)C2C(=O)CCCC2=O)c(Cl)c1 [sulc, sulcotrione]
[16]
  resistance in pyomelanin assay: resistance relative to HPPD SEQ ID NO:14
[17]
  tolerance in pyomelanin assay: enhanced tolerance
